Data reported in US10092620B2, “Uses of cyclic peptides for treating and preventing atherosclerosis” (THE SCRIPPS RESEARCH INSTITUTE, priority 2013, dated 2018).
Non-standard residues stand in square brackets, D forms with d. Residues, ends and D or L forms follow the SMILES beside them.

Tests used:
[1] = mouse pharmacokinetics, i.p., LC-MS SIM; type: in vivo; conditions: male, BALB/cByJ, plasma, ip, BALB/c mice, i.p. 16 mg/kg
Experimental: Pharmacokinetics: The TSRI Institutional Animal Care and Use Committee approved all experimental protocols involving live animals. Male mice (20 g) on a BALB/cByJ background were obtained from the Rodent Breeding Colony of the Department of Animal Resources at TSRI, and were maintained on a chow diet. The cyclic peptide c[wLwReQeR], 1, was dissolved in PBS containing 1% sucrose, and sterile filtered through a 0.22-μm syringe filter before injection. Mice were fasted beginning 12 h before dosing, and continued the fast until after the 8-h time point blood draw was completed. Groups of three mice received a 16-mg/kg dose of the cyclic peptide via intraperitoneal injection (0.3 mL). Blood was drawn (30-60 μL) from the retro-orbital sinus into a heparinized capillary tube before dosing (0 min) and at different intervals from 30 min to 8 h after dosing. Plasma was isolated immediately from the whole blood by centrifugation at 5000 rpm for 10 min at 4° C. […] The resultant supernatant was analyzed by using LC-MS SIM as described below.
LC-MS SIM quantitation of peptide concentration: Cyclic peptide concentrations were quantified by using reverse-phase HPLC coupled with mass spectrometry. […] For quantitative calibration, standard curves were established using mouse EDTA-anticoagulated plasma spiked with various concentrations of the peptide. […]

LDLr-null mice = experiment: in vivo efficacy study: plasma total cholesterol in high-fat-fed LDLr-null mice; parameters: species or system mouse
Description: Encouraged by the above findings, we carried out a 2-week pilot study to determine the effect of 1 on plasma total cholesterol levels. As an animal model, we employed the LDLr-null mouse, which has a human-like lipoprotein profile and is a leading animal model for studying hypercholesterolemia and atherogenesis. Considering that the abiotic nature of cyclic D,L-α-peptides renders them highly resistant to proteolysis, we chose to conduct this pilot in vivo efficacy study via the more convenient oral route of administration. Thus, the cyclic D,L-α-peptide was administered orally in the drinking water for two weeks (each mouse drank ˜0.5 mg peptide per day, or ˜25 mg/kg/day) to mice maintained on a high-fat diet.
In vivo efficacy study: LDL receptor-null (LDLr^−/−) mice on a C57BL/6J background were initially purchased from Jackson Laboratories (Bar Harbor, Me.) and were bred in house. The mice were weaned at 4 weeks of age and were fed ad libitum a standard chow diet (Harlan Teklad 7019) until they were 10-weeks old, when they were switched to a high-fat Western diet (WD) containing 15.8% (wt/wt) fat, 1.25% (wt/wt) cholesterol, and no cholate (Harlan Teklad 94059). At the time that the WD was started, the test cyclic peptide was added to the drinking water at a high dose of 180 μM (200 μg/mL) or a low dose of 18 μM (20 μg/mL) and the mice (female, n=8 per dosing group) were continued on WD for 10 weeks. The lyophilized peptide was easily dissolved in PBS (pH 7.4) containing 1% sucrose, resulting in a clear solution. The drinking water solution was replaced with fresh solution every day. A control group of eight mice (female, n=8) were fed WD with vehicle (PBS with 1% sucrose) drinking water. The mice consumed approximately 2.5 mL of water per day per mouse, and there was no significant difference in water or food consumption between groups.
Effect of cyclic peptides on plasma total cholesterol: The mice were bled after two weeks of treatment and at the time of harvest (10 weeks). The blood (200 μL) was collected after an overnight fast (14-16 h) by retro-orbital puncture into a heparinized capillary tube at two weeks, or by cardiac puncture into EDTA anti-coagulant coated tubes at the time of harvest (10 weeks). Plasma was separated from whole blood immediately by centrifugation of the blood samples at 5000 rpm for 10 min at 4° C., and was then stored at −80° C. Plasma total cholesterol (TC) was measured using an enzymatic colorimetric method kit (Amplex® red cholesterol assay kit, No. A12216, Life Technologies) according to the manufacturer's instructions.
In addition, several peptides were administered orally to mice at a 35 mg/kg dose (unless otherwise noted) in the drinking water for two weeks. The female LDLr-null mice maintained on a high-fat diet were provided with peptide-treated 1% sucrose/PBS or 1% sucrose/PBS alone as the drinking water ad libitum. Cholesterol levels were then determined. The data are shown in FIG. 7 as a scatter plot along with mean±SD. p values were determined by the one-way ANOVA test with a post hoc Tukey-Kramer test.

[2] = body, liver and spleen weights, food and water intake; type: in vivo, mouse; conditions: oral ~25 mg/kg/day, 10 weeks, LDLr-null mice
Experimental: Body weight was measured weekly. Mice were weighed prior to fasting. Liver and spleen weights were determined at the end of treatment.

In the case of CC(C)C[C@@H]1NC(=O)[C@@H](Cc2c[nH]c3ccccc23)NC(=O)[C@H](CCCNC(=N)N)NC(=O)[C@@H](CCC(=O)O)NC(=O)[C@H](CCC(N)=O)NC(=O)[C@@H](CCC(=O)O)NC(=O)[C@H](CCCNC(=N)N)NC(=O)[C@@H](Cc2c[nH]c3ccccc23)NC1=O [SEQ ID NO:1, c[wLwReQeR]] (cyclo([dW]L[dW]R[dE]Q[dE]R)), the half-life [1] is reported as ~2 h, the “reduction in plasma cholesterol levels compared to control animals” value (LDLr-null mice; 10-fold lower dose ~2.5 mg/kg/day in drinking water, after two weeks) is reported as 17% and the “reduction in total plasma cholesterol compared to control animals” value (LDLr-null mice; oral in drinking water ~25 mg/kg/day, 2 weeks, female LDLr-null mice, high-fat diet) is reported as 55%. The “reduction of total plasma cholesterol levels (overview statement)” value (LDLr-null mice; oral in drinking water, LDLr-null mice, high-fat diet for 10 weeks, vs. controls) was “up to 55%”, the “total plasma cholesterol level lower than in control animals” value (LDLr-null mice; oral ~25 mg/kg/day, 10 weeks, LDLr-null mice, high-fat diet) was 30% and the “plasma cholesterol vs control (in words)” value (LDLr-null mice; ~2.5 mg/kg/day in drinking water, completion of 10-week study) was “no significant differences”. For the same compound, the “body weight, difference between groups” value [2] was “No differences”, the “food or water intake, difference between groups” value [2] was “No differences” and the “liver weight, difference between groups” value [2] was “No differences”. For the same compound, the “spleen weight, difference between groups” value [2] was “No differences”.
